Reference: patent publication US20180338980A1, “AROMATIC SULFONAMIDE DERIVATIVES” (BAYER PHARMA AKTIENGESELLSCHAFT, priority 2015, published 2018)
“And” between values parts separate entries of the source, which are not always exact repeats. Identical values can stand only once.

Target: T1, P2X4 (Homo sapiens, UniProt Q99571)
T1 sequence (Q99571 1-388): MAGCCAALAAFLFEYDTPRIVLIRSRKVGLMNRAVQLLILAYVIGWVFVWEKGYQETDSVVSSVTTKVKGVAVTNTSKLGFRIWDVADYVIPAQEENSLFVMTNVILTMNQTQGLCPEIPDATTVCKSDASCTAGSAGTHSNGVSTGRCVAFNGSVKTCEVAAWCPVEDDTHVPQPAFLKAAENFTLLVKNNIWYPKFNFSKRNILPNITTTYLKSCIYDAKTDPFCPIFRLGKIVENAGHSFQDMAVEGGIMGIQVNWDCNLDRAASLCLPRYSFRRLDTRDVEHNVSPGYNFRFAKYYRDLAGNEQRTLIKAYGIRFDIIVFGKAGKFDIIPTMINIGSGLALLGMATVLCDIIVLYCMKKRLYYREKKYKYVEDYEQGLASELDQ
Test: Assay B: human P2X4 receptor cell line, mitochondrial photina luminescence (agonist Bz-ATP at EC50)
Type: cell-based
Parameters: host or cells: HEK 293 (recombinant, constitutively expressing; with mitochondrial photina in Assay B)
Settings: HEK human P2X4 cell line, photina luminescence, agonist Bz-ATP at EC50, average; for Emax: read-out: human P2X4 Assay B avg Efficacy
Method in brief: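 Bz-ATP at its EC50 activates human P2X4 stably expressed in a cell line that also carries the calcium-sensitive photoprotein mitochondrial photina (coelenterazine cofactor). Light emitted on calcium influx is measured straight away in a luminometer. Reduced luminescence indicates antagonism.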

Compound	IC50	Emax [%]
CN1CCCC(Oc2ccc(NC(=O)Cc3ccccc3)cc2S(N)(=O)=O)C1 (stereo not drawn) [Example 219, N-{4-[(1-Methylpiperidin-3-yl)oxy]-3-sulfamoylphenyl}-2-phenylacetamide]	> 50000 nM	23
CN1CCCC(Oc2ccc(NC(=O)Cc3ccccc3Cl)cc2S(N)(=O)=O)C1 (stereo not drawn) [Example 220, 2-(2-Chlorophenyl)-N-{4-[(1-methylpiperidin-3-yl)oxy]-3-sulfamoylphenyl}acetamide]	3810 nM	77
CN1CCC(Oc2ccc(NC(=O)Cc3ccccc3)cc2S(N)(=O)=O)C1 (stereo not drawn) [Example 221, N-{4-[(1-Methylpyrrolidin-3-yl)oxy]-3-sulfamoylphenyl}-2-phenylacetamide]	> 50000 nM	30
CN1CCC(Oc2ccc(NC(=O)Cc3ccccc3Cl)cc2S(N)(=O)=O)C1 (stereo not drawn) [Example 222, 2-(2-Chlorophenyl)-N-{4-[(1-methylpyrrolidin-3-yl)oxy]-3-sulfamoylphenyl}acetamide]	8540 nM and 8060 nM and > 16000 nM	70
NS(=O)(=O)c1cc(NC(=O)Cc2ccccc2F)ccc1Oc1ccc(Cl)cc1 [Example 230, N-[4-(4-Chlorophenoxy)-3-sulfamoylphenyl]-2-(2-fluorophenyl)acetamide]		50
CN1CCC(Oc2ccc(NC(=O)Cc3ccccc3Cl)cc2S(N)(=O)=O)CC1 [Example 238, 2-(2-Chlorophenyl)-N-{4-[(1-methylpiperidin-4-yl)oxy]-3-sulfamoylphenyl}acetamide]	> 16000 nM	
Cc1cc(Oc2cccc(Cl)c2)c(S(N)(=O)=O)cc1NC(=O)Cc1ccccc1Cl [Example 240, N-[4-(3-Chlorophenoxy)-2-methyl-5-sulfamoylphenyl]-2-(2-chlorophenyl)acetamide]	3040 nM	86
NS(=O)(=O)c1cc(NC(=O)Cc2ccccc2Cl)ccc1OC1CC[S+]([O-])C1 (stereo not drawn) [Example 241, 2-(2-Chlorophenyl)-N-{4-[(1-oxidotetrahydrothiophen-3-yl)oxy]-3-sulfamoylphenyl}acetamide]	> 16000 nM	34
NS(=O)(=O)c1cc(NC(=O)Cc2c(Cl)cc(C(F)(F)F)cc2Cl)ccc1Oc1ccc(Cl)cc1 [Example 242, N-[4-(4-Chlorophenoxy)-3-sulfamoylphenyl]-2-[2,6-dichloro-4-(trifluoromethyl)phenyl]acetamide]	2870 nM and > 16000 nM	71
N#Cc1cc(Cl)c(CC(=O)Nc2ccc(Oc3ccc(Cl)cc3)c(S(N)(=O)=O)c2)cc1Cl [Example 243, N-[4-(4-Chlorophenoxy)-3-sulfamoylphenyl]-2-(2,5-dichloro-4-cyanophenyl)acetamide]	2720 nM	70
NS(=O)(=O)c1cc(NC(=O)Cc2ccccc2)ccc1OCC1CC1 [Example 245, N-[4-(Cyclopropylmethoxy)-3-sulfamoylphenyl]-2-phenylacetamide]	5970 nM	68
NS(=O)(=O)c1cc(NC(=O)Cc2ccccc2)ccc1Oc1ccc(OC(F)(F)F)cc1 [Example 252, 2-Phenyl-N-{3-sulfamoyl-4-[4-(trifluoromethoxy)phenoxy]phenyl}acetamide]	6460 nM	93

The next lines start with the values.

IC50	Emax [%]	Compound
248 nM	80	NS(=O)(=O)c1cc(NC(=O)Cc2ccccc2Cl)ccc1OC1CCCC1 [Example 218, 2-(2-Chlorophenyl)-N-[4-(cyclopentyloxy)-3-sulfamoylphenyl]acetamide]
1850 nM	82	NS(=O)(=O)c1cc(NC(=O)Cc2ccc(F)cc2)ccc1Oc1ccc(Cl)cc1 [Example 223, N-[4-(4-Chlorophenoxy)-3-sulfamoylphenyl]-2-(4-fluorophenyl)acetamide]
192 nM	98	N#Cc1ccccc1CC(=O)Nc1ccc(Oc2cccc(Cl)c2)c(S(N)(=O)=O)c1 [Example 225, N-[4-(3-Chlorophenoxy)-3-sulfamoylphenyl]-2-(2-cyanophenyl)acetamide]
491 nM	75	N#Cc1cccc(CC(=O)Nc2ccc(Oc3cccc(Cl)c3)c(S(N)(=O)=O)c2)c1 [Example 226, N-[4-(3-Chlorophenoxy)-3-sulfamoylphenyl]-2-(3-cyanophenyl)acetamide]
1770 nM	69	NS(=O)(=O)c1cc(NC(=O)Cc2ccc(C(F)(F)F)cc2)ccc1Oc1ccc(Cl)cc1 [Example 227, N-[4-(4-Chlorophenoxy)-3-sulfamoylphenyl]-2-[4-(trifluoromethyl)phenyl]acetamide]
1590 nM	58	NS(=O)(=O)c1cc(NC(=O)Cc2ccc(Cl)cc2)ccc1Oc1ccc(Cl)cc1 [Example 228, N-[4-(4-Chlorophenoxy)-3-sulfamoylphenyl]-2-(4-chlorophenyl)acetamide]
232 nM	77	Cn1ccc(Oc2ccc(NC(=O)Cc3ccccc3Cl)cc2S(N)(=O)=O)n1 [Example 236, 2-(2-Chlorophenyl)-N-{4-[(1-methyl-1H-pyrazol-3-yl)oxy]-3-sulfamoylphenyl}acetamide]
235 nM	59	Cn1nccc1Oc1ccc(NC(=O)Cc2ccccc2Cl)cc1S(N)(=O)=O [Example 237, 2-(2-Chlorophenyl)-N-{4-[(1-methyl-1H-pyrazol-5-yl)oxy]-3-sulfamoylphenyl}acetamide]
152 nM	99	Cc1sc(-c2cccnc2)nc1Oc1ccc(NC(=O)Cc2ccccc2Cl)cc1S(N)(=O)=O [Example 239, 2-(2-Chlorophenyl)-N-(4-{[5-methyl-2-(pyridin-3-yl)-1,3-thiazol-4-yl]oxy}-3-sulfamoylphenyl)acetamide]
949 nM	94	Cc1cc(C)cc(Oc2ccc(NC(=O)Cc3ccccc3)cc2S(N)(=O)=O)c1 [Example 246, N-[4-(3,5-Dimethylphenoxy)-3-sulfamoylphenyl]-2-phenylacetamide]
1110 nM	59	NS(=O)(=O)c1cc(NC(=O)Cc2ccccc2)ccc1Oc1ccc(F)cc1F [Example 247, N-[4-(2,4-Difluorophenoxy)-3-sulfamoylphenyl]-2-phenylacetamide]
1280 nM	62	NS(=O)(=O)c1cc(NC(=O)Cc2ccccc2)ccc1Oc1ccc(F)cc1 [Example 248, N-[4-(4-Fluorophenoxy)-3-sulfamoylphenyl]-2-phenylacetamide]
544 nM	73	NS(=O)(=O)c1cc(NC(=O)Cc2ccccc2)ccc1Oc1cccc(F)c1 [Example 249, N-[4-(3-Fluorophenoxy)-3-sulfamoylphenyl]-2-phenylacetamide]
439 nM	82	COc1cccc(Oc2ccc(NC(=O)Cc3ccccc3)cc2S(N)(=O)=O)c1 [Example 250, N-[4-(3-Methoxyphenoxy)-3-sulfamoylphenyl]-2-phenylacetamide]
392 nM	100	Cc1ccc(F)c(Oc2ccc(NC(=O)Cc3ccccc3)cc2S(N)(=O)=O)c1 [Example 251, N-[4-(2-Fluoro-5-methylphenoxy)-3-sulfamoylphenyl]-2-phenylacetamide]
236 nM	71	NS(=O)(=O)c1cc(NC(=O)Cc2ccccc2)ccc1Oc1cccc(C(F)(F)F)c1 [Example 253, 2-Phenyl-N-{3-sulfamoyl-4-[3-(trifluoromethyl)phenoxy]phenyl}acetamide]
